According to patent US20100029643A1 (ASTRAZENECA AB, priority 2006, published 2010):

Target: T1, Edg-1/S1P1 receptor (Homo sapiens, UniProt P21453)
T1 construct: expressed in transfected cells; host or cells: human osteogenic sarcoma U2OS cells: Edg-1 Transfluor U2OS WT Clone #37 (assay I), Edg-1 Transfluor U2OS Clone #3 (assay II)
Experiment: In vitro cell based receptor activation assay - Transfluor assay (assay I or II; beta-arrestin GFP relocalization after S1P stimulation)
Conditions: at 3.30 μM (run with this as top concentration)
Source text: The following assays can be used to measure the effects of the compounds of the present invention as S1P1/Edg1 inhibitors.
I. In Vitro Cell Based Receptor Activation Assay-Transfluor Assay
(§1) This cell-based assay was designed to assess the ability of small molecule antagonists to inhibit activation of the GPCR S1P1 in the presence of its cognate ligand S1P. The assay used technology initially developed by Norak Biosciences (Xsira Pharmaceutical) and presently owned by Molecular Devices. A human osteogenic sarcoma (U2OS) cell line overexpressing the Edg-1/S1P1) receptor as well as a beta-arrestin/green fluorescent protein (GFP) construct hereafter termed Edg-1 Transfluor U2OS WT Clone #37 was employed.
Using a high content screening approach (Cellomics Arrayscan), receptor activity was measured by assessment of the relocalization of beta-arrestin GFP in response to stimulation of Edg-1 by SIP. Specifically, Edg-1 Transfluor U2OS WT Clone #37 cells were plated at a density of 6250 cells in 40 μL medium per well in 384 well plastic bottomed microtiter plates (BD Falcon) and incubated overnight at 37° C./5% CO2. Prior to screening, compounds were dissolved in 100% dimethyl sulfoxide (DMSO) to a final stock concentration of 10 mM. Compounds were then serially diluted at 30× final concentration in Edg-1 Transfluor cell growth medium containing […] using the Tecan Genesis instrument. These 30× plates were then diluted to 6× final concentration with Edg-1 Transfluor growth medium just prior to dosing. Cells were then dosed with 10 μL per well of 6× compound dilutions or 6% DMSO and pre-incubated for 15 minutes at room temperature. Cell plates were dosed with 10 μL per well 6× S1P Edg-1 Transfluor growth medium, then incubated for 45 minutes at 37° C./5% CO2. Final concentration in the well of DMSO was 1%, compound was IX (3-fold, 9 point IC50 dilutions starting at 100 μM final concentration), and either 375 nM or […] SIP ligand. Cell plates were then fixed by adding 50 μL per well of 5% formaldehyde in 1× Dulbecco's phosphate buffered saline (DPBS) directly and incubating for 30 minutes at room temperature in darkness. Fixative was removed and replaced with 50 μL per well of 1×DPBS, after which cells were stained with 10 μg/mL final concentration of Hoechst 33342 (Molecular Probes) for 15 minutes at room temperature in darkness. Stain was then removed from the plates and replaced with 50 μL per well of 1×DPBS using the BioTek ExL405 plate washer. Plates were then sealed and analysed on the Cellomics Arrayscan using the GPCR signalling algorithm. EC50 values were then calculated using IDBS ActivityBase software.
II. In Vitro Cell Based Receptor Activation Assay-Transfluor Assay
as §1, with “Devices (MDS Analytical Technologies).” for “Devices.”, “U2OS” for “U2OS WT”, “#3” for “#37”
Using a high content screening approach (Molecular Devices Image Express), receptor activity was measured by assessment of the relocalization of beta-aiTestin GFP in response to stimulation of Edg-1 by S1P. Specifically, Edg-1 Transfluor U2OS Clone #3 cells were plated at a density of 6250 cells in 44 μL medium per well in 384 well plastic bottomed microtiter plates (BD Falcon) and incubated overnight at 37° C./5% CO2. Prior to screening, compounds were dissolved in 100% dimethyl sulfoxide (DMSO) to a final stock concentration of 10 mM. Compounds were then serially diluted at 10× final concentration in Edg-1 Transfluor cell growth medium containing 6% DMSO using the BioMek instrument. […]

T1 sequence (P21453 whole entry): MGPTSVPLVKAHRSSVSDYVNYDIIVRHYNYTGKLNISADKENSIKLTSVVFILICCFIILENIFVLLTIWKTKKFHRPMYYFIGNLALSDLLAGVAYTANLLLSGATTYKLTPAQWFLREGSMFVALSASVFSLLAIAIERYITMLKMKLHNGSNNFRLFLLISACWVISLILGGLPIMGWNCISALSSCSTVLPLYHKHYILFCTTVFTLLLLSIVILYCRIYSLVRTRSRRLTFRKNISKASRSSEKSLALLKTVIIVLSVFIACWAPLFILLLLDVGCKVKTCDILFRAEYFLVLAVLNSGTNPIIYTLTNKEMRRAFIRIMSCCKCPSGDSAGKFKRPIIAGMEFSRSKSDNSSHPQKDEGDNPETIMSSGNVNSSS

| inhibition at 3.3 µM [%] | Compound |
| --- | --- |
| 92.1 | CCn1c([C@@H](C)NS(=O)(=O)c2ccccc2)nc2ccc(C(F)(F)F)cc21 [Example 50, N-{(1R)-1-[1-Ethyl-6-(trifluoromethyl)-1H-benzimidazol-2-yl]ethyl}benzenesulfonamide] |

Same assay, conditions: at 3.50 μM (titrated from top concentration 10 μM)

| inhibition at 3.5 µM [%] | Compound |
| --- | --- |
| 92.5 | CCn1c([C@@H](C)NS(=O)(=O)c2cccs2)nc2ccc(C(F)(F)F)cc21 [Example 39, N-{(1R)-1-[1-Ethyl-6-(trifluoromethyl)-1H-benzimidazol-2-yl]ethyl}thiophene-2-sulfonamide] |
| 97.5 | CCn1c([C@@H](C)NS(=O)(=O)c2ccc(C(=O)OC)n2C)nc2ccc(C(F)(F)F)cc21 [Example 40, (R)-methyl 5-(N-(1-(1-ethyl-6-(trifluoromethyl)-1H-benzo[d]imidazol-2-yl)ethyl)sulfamoyl)-1-methyl-1H-pyrrole-2-carboxylate] |
| 93.3 | CCn1c([C@@H](C)NS(=O)(=O)c2ccc3c(c2)OCCN3C)nc2ccc(C(F)(F)F)cc21 [Example 43, N-{(1R)-1-[1-Ethyl-6-(trifluoromethyl)-1H-benzimidazol-2-yl]ethyl}-4-methyl-3,4-dihydro-2H-1,4-benzoxamide-7-sulfonamide] |
| 93.9 | CCn1c([C@@H](C)NS(=O)(=O)c2ccc3c(c2)OCCO3)nc2ccc(C(F)(F)F)cc21 [Example 44, N-{(1R)-1-[1-Ethyl-6-(trifluoromethyl)-1H-benzimidazol-2-yl]ethyl}-2,3-dihydro-1,4-benzodioxine-6-sulfonamide] |
| 96 | CCn1c([C@@H](C)NS(=O)(=O)c2ccc3c(c2)OCO3)nc2ccc(C(F)(F)F)cc21 [Example 45, N-{(1R)-1-[1-Ethyl-6-(trifluoromethyl)-1H-benzimidazol-2-yl]ethyl}-1,3-benzodioxole-5-sulfonamide] |
| 95.4 | CCn1c([C@@H](C)NS(=O)(=O)c2cnc(Cl)c(Cl)c2)nc2ccc(C(F)(F)F)cc21 [Example 48, 5,6-dichloro-N-(1-(1-ethyl-6-(trifluoromethyl)-1H-benzo[d]imidazol-2-yl)ethyl)pyridine-3-sulfonamide] |
| 96 | CCn1c([C@@H](C)NS(=O)(=O)c2ccc(Cl)cc2)nc2cc(F)c(Cl)cc21 [Example 56, 4-Chloro-N-[(1R)-1-(6-chloro-1-ethyl-5-fluoro-1H-benzimidazol-2-yl)ethyl]benzenesulfonamide] |
| 93.9 | CCn1c([C@@H](C)NS(=O)(=O)c2ccc(Cl)cc2)nc2cc3c(cc21)OCO3 [Example 63, (R)-4-Chloro-N-[1-(5-Ethyl-5H-[1,3]dioxolo[4′,5′;4,5]-benzo[1,2-d]imidazol-6-yl)-ethyl]benzenesulfonamide] |

Same assay, conditions: at 3.70 μM (titrated from top concentration 100 μM)

| inhibition at 3.7 µM [%] | Compound |
| --- | --- |
| 35.1 | CCn1c([C@@H](C)NS(=O)(=O)C2CC2)nc2ccc(C(F)(F)F)cc21 [Example 38, N-{(1R)-1-[1-Ethyl-6-(trifluoromethyl)-1H-benz-imidazol-2-yl]ethyl}cyclo-propanesulfonamide] |
| 61 | CCn1c([C@@H](C)NS(=O)(=O)c2cn(C)nc2C)nc2ccc(C(F)(F)F)cc21 [Example 41, N-{(1R)-1-[1-Ethyl-6-(trifluoromethyl)-1H-benzimidazol-2-yl]ethyl}-1,3-dimethyl-1H-pyrazole-4-sulfonamide] |
| 41.3 | CCn1c([C@@H](C)NS(=O)(=O)c2cn(C)c(C)n2)nc2ccc(C(F)(F)F)cc21 [Example 42, N-{(1R)-1-[1-Ethyl-6-(trifluoromethyl)-1H-benzimidazol-2-yl]ethyl}-1,2-dimethyl-1H-imidazole-4-sulfonamide] |
| 89.8 | CCn1c([C@@H](C)NS(=O)(=O)c2ccc3nsnc3c2)nc2ccc(C(F)(F)F)cc21 [Example 46, N-{(1R)-1-[1-Ethyl-6-(trifluoromethyl)-1H-benzimidazol-2-yl]ethyl}-2,1,3-benzothiadiazole-5-sulfonamide] |
| 89.6 | CCn1c([C@@H](C)NS(=O)(=O)c2ccsc2)nc2ccc(C(F)(F)F)cc21 [Example 47, N-{(1R)-1-[1-Ethyl-6-(trifluoromethyl)-1H-benzimidazol-2-yl]ethyl}thiophene-3-sulfonamide] |
| 92.1 | CCn1c([C@@H](C)NS(=O)(=O)c2cnc(Cl)c(Br)c2)nc2ccc(C(F)(F)F)cc21 [Example 49, 5-Bromo-6-chloro-N-{(1R)-1-[1-ethyl-6-(trifluoromethyl)-1H-benzimidazol-2-yl]ethyl}pyridine-3-sulfonamide] |
| 92.8 | CCn1c([C@@H](C)NS(=O)(=O)c2c(F)cc(F)cc2F)nc2ccc(C(F)(F)F)cc21 [Example 51, N-{(1R)-1-[1-Ethyl-6-(trifluoromethyl)-1H-benzimidazol-2-yl]ethyl}-2,4,6-trifluorobenzenesulfonamide] |
| 89 | CCn1c([C@@H](C)NS(=O)(=O)c2ccc(Cl)c3cccnc23)nc2ccc(C(F)(F)F)cc21 [Example 52, 5-Chloro-N-{(1R)-1-[1-ethyl-6-(trifluoromethyl)-1H-benzimidazol-2-yl]ethyl}-quinoline-8-sulfonamide] |
| 84.5 | CCCn1cc(S(=O)(=O)N[C@H](C)c2nc3ccc(C(F)(F)F)cc3n2CC)c(C)n1 [Example 53, N-{(1R)-1-[1-Ethyl-6-(trifluoromethyl)-1H-benzimidazol-2-yl]ethyl}-3-methyl-1-propyl-1H-pyrazole-4-sulfonamide] |
| 77.5 | CCCn1ncc(S(=O)(=O)N[C@H](C)c2nc3ccc(C(F)(F)F)cc3n2CC)c1C [Example 54, N-{(1R)-1-[1-Ethyl-6-(trifluoromethyl)-1H-benzimidazol-2-yl]ethyl}-5-methyl-1-propyl-1H-pyrazole-4-sulfonamide] |
| 84.5 | CCn1c([C@@H](C)NS(=O)(=O)c2ccc(Cl)cc2)nc2cc(F)cc(F)c21 [Example 57, 4-Chloro-N-[(1R)-1-(1-ethyl-5,7-difluoro-1H-benzimidazol-2-yl)ethyl]benzenesulfonamide] |
| 78.2 | CCn1c([C@@H](C)NS(=O)(=O)c2ccc(Cl)cc2)nc2cc(Cl)cc(Cl)c21 [Example 58, 4-Chloro-N-[(1R)-1-(5,7-dichloro-1-ethyl-1H-benzimidazol-2-yl)ethyl]benzenesulfonamide] |
| 78.2 | CCn1c([C@@H](C)NS(=O)(=O)c2ccc(Cl)cc2)nc2cc(C)c(Cl)cc21 [Example 59, 4-Chloro-N-[(1R)-1-(6-chloro-1-ethyl-5-methyl-1H-benzimidazol-2-yl)ethyl]benzenesulfonamide] |
| 97.7 | CCn1c([C@@H](C)NS(=O)(=O)c2ccc(Cl)cc2)nc2cccc(F)c21 [Example 60] |
| 54.9 | CCn1c([C@@H](C)NS(=O)(=O)c2ccc(Cl)cc2)nc2cc(OC)c(OC)cc21 [Example 61, 4-Chloro-N-[(1R)-1-(1-ethyl-5,6-dimethoxy-1H-benzimidazol-2-yl)ethyl]benzenesulfonamide] |
| 52.2 | CCn1c([C@@H](C)NS(=O)(=O)c2ccc(Cl)cc2)nc2cc3c(cc21)OCCO3 [Example 62, 4-Chloro-N-[(1R)-1-(1-ethyl-6,7-dihydro-1H-[1,4]dioxino-[2,3-f]benzimidazol-2-yl)-ethyl]benzenesulfonamide] |
| 50.6 | CCn1c([C@@H](C)NS(=O)(=O)c2ccc(Cl)cc2)nc2cc(OC(F)(F)F)ccc21 [Example 64, 4-Chloro-N-{(1R)-1-[1-ethyl-5-(trifluoromethoxy)-1H-benzimidazol-2-yl]ethyl}benzenesulfonamide] |
